Test results reported in patent publication US10647675B2 (priority 2015, dated 2020).
Converted amounts (≈) assume the structure as drawn.

Assays:
[1] = system: Trichophyton rubrum KD-1130; test: Antifungal activity evaluation test: minimum inhibitory concentration (MIC), broth dilution by reference to CLSI M38-A2; format: cell-based; conditions: KD1130, read-out: MIC (T. rubrum)
Protocol: (§1) The minimum inhibitory concentration (MIC) for Trichophyton mentagrophytes and Trichophyton rubrum was measured by the following procedure by reference to Clinical and Laboratory standards Institute (CLSI) guidelines M38-A2. Reference document for the measurement method: National Committee for a Clinical Laboratory Standards. Reference method for broth dilution antifungal susceptibility testing of filamentous fungi. Approved standard Second edition M38-A2. Wayne, Pa.: National Committee for a Clinical Laboratory Standards, 2008. • Test compound solution: A test compound was dissolved in dimethyl sulfoxide (DMSO) at a concentration of 2.5 mg/mL to give a stock solution. The stock solution was appropriately diluted with DMSO to prepare a 2-fold dilution series. As control compounds, terbinafine and amorolfine were used. • Test strains: Trichophyton mentagrophytes SM-110 and Trichophyton rubrum KD-1130 were used. • Preparation of fungal culture to be inoculated: The above-mentioned test strain was suspended in 0.05% Tween 80-containing saline, and the fungi of the genus Trichophyton were prepared to a fungal concentration of 1×10^6 cells/mL by using a hemocytometer. Then, using MOPS-buffered RPMI 1640 medium (pH 7.0) as a test medium, a fungal culture of the fungi of the genus Trichophyton was diluted 250-fold (4×10^3 cells/mL) to give a fungal culture for inoculation. • MIC measurement of genus Trichophyton fungi: MOPS-buffered RPMI 1640 medium (pH 7.0) was dispensed by 100 μL to given wells of a 96 well U-bottom microplate. Then, the test compound solution (2 μL) was added, the mixture was sufficiently stirred by a plate mixer. The fungal culture (100 μL) was inoculated and the mixture was cultured at 35° C. for 4 days (final fungal concentration: 2×10^3 cells/mL). After the culture, the minimum drug concentration of a well in which a growth inhibitory action of not less than 80% was visually observed as compared to a growth control was taken as a minimum inhibitory concentration (MIC: μg/mL).
(§2) The abbreviations in the Tables mean the following fungi and compounds. • T. menta.: Trichophyton mentagrophytes • T. rubrum: Trichophyton rubrum • TBF: terbinafine • AMF: amorolfine

[2] = system: Trichophyton mentagrophytes SM-110; test: as above; format: cell-based; conditions: SM110, read-out: MIC (T. menta.)
Protocol: as §1, §2

Compound | MIC [1] | MIC [2]
COc1cc(-c2cccnc2Oc2ccc(C(F)F)nc2)c(F)cc1F [I-77, 3-(2,4-difluoro-5-methoxyphenyl)-2-{[6-(difluoromethyl)pyridin-3-yl]oxy}pyridine] | ≤ 0.1 µg/mL | ≤ 0.1 µg/mL
COc1ccc(-c2cccnc2Oc2ccc(C(F)F)nc2)c(OC)n1 [I-78, 2′-{[6-(difluoromethyl)pyridin-3-yl]oxy}-2,6-dimethoxy-3,3′-bipyridine] | ≤ 0.1 µg/mL | ≤ 0.1 µg/mL
COc1ccccc1-c1cccnc1Oc1ccc(C(F)(F)CO)nc1 [I-79, 2,2-difluoro-2-(5-{[3-(2-methoxyphenyl)pyridin-2-yl]oxy}pyridin-2-yl)ethanol] | 1.56 to 6.25 µg/mL (≈ 4.35 to 17.4 µM) | 0.2 to 0.78 µg/mL (≈ 0.558 to 2.18 µM)
COc1ccccc1-c1cccnc1Oc1ccc(C(F)(F)COS(=O)(=O)C(F)(F)F)nc1 [I-80, 2,2-difluoro-2-(5-{[3-(2-methoxyphenyl)pyridin-2-yl]oxy}pyridin-2-yl)ethyl trifluoromethanesulfonate] | 0.2 to 0.78 µg/mL | 0.2 to 0.78 µg/mL
COc1ccccc1-c1cccnc1Oc1ccc(C(C)(F)F)nc1 [I-81, 2-{[6-(1,1-difluoroethyl)pyridin-3-yl]oxy}-3-(2-methoxyphenyl)pyridine] | ≤ 0.1 µg/mL | ≤ 0.1 µg/mL
COc1cc(F)ccc1-c1cccnc1Oc1ccc(C(C)(F)F)nc1 [I-82] | ≤ 0.1 µg/mL | ≤ 0.1 µg/mL
COc1ccc(F)cc1-c1cccnc1Oc1ccc(C(C)(F)F)nc1 [I-83, 2-{[6-(1,1-difluoroethyl)pyridin-3-yl]oxy}-3-(5-fluoro-2-methoxyphenyl)pyridine] | ≤ 0.1 µg/mL | ≤ 0.1 µg/mL
COc1ccc(OC)c(-c2cccnc2Oc2ccc(C(C)(F)F)nc2)c1 [I-84, 2-{[6-(1,1-difluoroethyl)pyridin-3-yl]oxy}-3-(2,5-dimethoxyphenyl)pyridine] | ≤ 0.1 µg/mL | ≤ 0.1 µg/mL
COc1cc(-c2cccnc2Oc2ccc(C(C)(F)F)nc2)c(F)cc1F [I-85] | ≤ 0.1 µg/mL | ≤ 0.1 µg/mL
CC(F)(F)c1ccc(Oc2ncccc2-c2ccccc2C(F)F)cn1 [I-86, 2-{[6-(1,1-difluoroethyl)pyridin-3-yl]oxy}-3-[2-(difluoromethyl)phenyl]pyridine] | 0.2 to 0.78 µg/mL (≈ 0.552 to 2.15 µM) | 0.2 to 0.78 µg/mL (≈ 0.552 to 2.15 µM)
CC(F)(F)c1ccc(Oc2ncccc2-c2cccc(F)c2C#N)cn1 [I-87, 2-(2-{[6-(1,1-difluoroethyl)pyridin-3-yl]oxy}pyridin-3-yl)-6-fluorobenzonitrile] | 0.2 to 0.78 µg/mL (≈ 0.563 to 2.2 µM) | 0.2 to 0.78 µg/mL (≈ 0.563 to 2.2 µM)
COc1ncccc1-c1cccnc1Oc1ccc(C(C)(F)F)nc1 [I-88, 2-{[6-(1,1-difluoroethyl)pyridin-3-yl]oxy}-2′-methoxy-3,3′-bipyridine] | ≤ 0.1 µg/mL | ≤ 0.1 µg/mL
COc1cnccc1-c1cccnc1Oc1ccc(C(C)(F)F)nc1 [I-89, 2-{[6-(1,1-difluoroethyl)pyridin-3-yl]oxy}-3′-methoxy-3,4′-bipyridine] | 0.2 to 0.78 µg/mL (≈ 0.583 to 2.27 µM) | 0.2 to 0.78 µg/mL (≈ 0.583 to 2.27 µM)
COc1ccncc1-c1cccnc1Oc1ccc(C(C)(F)F)nc1 [I-90, 2-{[6-(1,1-difluoroethyl)pyridin-3-yl]oxy}-4′-methoxy-3,3′-bipyridine] | 0.2 to 0.78 µg/mL (≈ 0.583 to 2.27 µM) | 0.2 to 0.78 µg/mL (≈ 0.583 to 2.27 µM)
Cc1ccncc1-c1cccnc1Oc1ccc(C(C)(F)F)nc1 [I-91, 2-{[6-(1,1-difluoroethyl)pyridin-3-yl]oxy}-4′-methyl-3,3′-bipyridine] | 0.2 to 0.78 µg/mL (≈ 0.611 to 2.38 µM) | 0.2 to 0.78 µg/mL (≈ 0.611 to 2.38 µM)
CC(F)(F)c1ccc(Oc2ncccc2-c2ccncc2F)cn1 [I-92, 2-{[6-(1,1-difluoroethyl)pyridin-3-yl]oxy}-3′-fluoro-3,4′-bipyridine] | 0.2 to 0.78 µg/mL (≈ 0.604 to 2.35 µM) | 0.2 to 0.78 µg/mL (≈ 0.604 to 2.35 µM)
Cc1cncc(-c2cccnc2Oc2ccc(C(C)(F)F)nc2)c1 [I-93, 2-{[6-(1,1-difluoroethyl)pyridin-3-yl]oxy}-5′-methyl-3,3′-bipyridine] | 0.2 to 0.78 µg/mL (≈ 0.611 to 2.38 µM) | 0.2 to 0.78 µg/mL (≈ 0.611 to 2.38 µM)
COc1ccc(-c2cccnc2Oc2ccc(C(C)(F)F)nc2)c(OC)n1 [I-94, 2′-{[6-(1,1-difluoroethyl)pyridin-3-yl]oxy}-2,6-dimethoxy-3,3′-bipyridine] | ≤ 0.1 µg/mL | ≤ 0.1 µg/mL
COc1cccc(-c2cccnc2Oc2ccc(C(C)(F)F)nc2)n1 [I-95, 2′-{[6-(1,1-difluoroethyl)pyridin-3-yl]oxy}-6-methoxy-2,3′-bipyridine] | 0.2 to 0.78 µg/mL (≈ 0.583 to 2.27 µM) | 0.2 to 0.78 µg/mL (≈ 0.583 to 2.27 µM)

Compound | MIC [1] | MIC [2]
COc1ccc(OC)c(-c2cccnc2Oc2ccc(C(C)(F)F)nc2)n1 [I-96, 2′-{[6-(1,1-difluoroethyl)pyridin-3-yl]oxy}-3,6-dimethoxy-2,3′-bipyridine] | ≤ 0.1 µg/mL | ≤ 0.1 µg/mL
CC(F)(F)c1ccc(Oc2ncccc2-c2cncc(F)c2Cl)cn1 [I-97, 4′-chloro-2-{[6-(1,1-difluoroethyl)pyridin-3-yl]oxy}-5′-fluoro-3,3′-bipyridine] | 0.2 to 0.78 µg/mL (≈ 0.547 to 2.13 µM) | 0.2 to 0.78 µg/mL (≈ 0.547 to 2.13 µM)
COc1c(F)cncc1-c1cccnc1Oc1ccc(C(C)(F)F)nc1 [I-98, 2-{[6-(1,1-difluoroethyl)pyridin-3-yl]oxy}-5′-fluoro-4′-methoxy-3,3′-bipyridine] | 0.2 to 0.78 µg/mL (≈ 0.554 to 2.16 µM) | 0.2 to 0.78 µg/mL (≈ 0.554 to 2.16 µM)
Cc1c(F)cncc1-c1cccnc1Oc1ccc(C(C)(F)F)nc1 [I-99, 2-{[6-(1,1-difluoroethyl)pyridin-3-yl]oxy}-5′-fluoro-4′-methyl-3,3′-bipyridine] | 0.2 to 0.78 µg/mL (≈ 0.579 to 2.26 µM) | 0.2 to 0.78 µg/mL (≈ 0.579 to 2.26 µM)
COc1c(Cl)cncc1-c1cccnc1Oc1ccc(C(C)(F)F)nc1 [I-100, 5′-chloro-2-{[6-(1,1-difluoroethyl)pyridin-3-yl]oxy}-4′-methoxy-3,3′-bipyridine] | ≤ 0.1 µg/mL | ≤ 0.1 µg/mL
Cc1nsc(C)c1-c1cccnc1Oc1ccc(C(C)(F)F)nc1 [I-101, 4-(2-{[6-(1,1-difluoroethyl)pyridin-3-yl]oxy}pyridin-3-yl)-3,5′-dimethylisothiazole] | 0.2 to 0.78 µg/mL (≈ 0.576 to 2.25 µM) | 0.2 to 0.78 µg/mL (≈ 0.576 to 2.25 µM)
Cc1noc(C)c1-c1cccnc1Oc1ccc(C(C)(F)F)nc1 [I-102] | 0.2 to 0.78 µg/mL (≈ 0.604 to 2.35 µM) | 0.2 to 0.78 µg/mL (≈ 0.604 to 2.35 µM)
Cc1noc(-c2cccnc2Oc2ccc(C(C)(F)F)nc2)c1Cl [I-104, 4-chloro-5-(2-{[6-(1,1-difluoroethyl)pyridin-3-yl]oxy}pyridin-3-yl)-3-methylisoxazole] | 0.2 to 0.78 µg/mL (≈ 0.569 to 2.22 µM) | 0.2 to 0.78 µg/mL (≈ 0.569 to 2.22 µM)
CC(F)(F)c1ccc(Oc2ncccc2-c2cccnc2N2CCCC2)cn1 [I-105] | 1.56 to 6.25 µg/mL (≈ 4.08 to 16.3 µM) | 1.56 to 6.25 µg/mL (≈ 4.08 to 16.3 µM)
CC(F)(F)c1ccc(Oc2ncccc2-c2cccnc2-n2ccnc2)cn1 [I-106, 2-{[6-(1,1-difluoroethyl)pyridin-3-yl]oxy}-2′-(1H-imidazol-1-yl)-3,3′-bipyridine] | 1.56 to 6.25 µg/mL (≈ 4.11 to 16.5 µM) | 1.56 to 6.25 µg/mL (≈ 4.11 to 16.5 µM)
CC(F)(F)c1ccc(Oc2ncccc2-c2cccnc2-n2cccn2)cn1 [I-107, 2-{[6-(1,1-difluoroethyl)pyridin-3-yl]oxy}-2′-(1H-pyrazol-1-yl)-3,3′-bipyridine] | 1.56 to 6.25 µg/mL (≈ 4.11 to 16.5 µM) | 1.56 to 6.25 µg/mL (≈ 4.11 to 16.5 µM)
CC(F)(F)c1ccc(Oc2ncccc2-c2ccnc3ccccc23)cn1 [I-108, 4-(2-{[6-(1,1-difluoroethyl)pyridin-3-yl]oxy}pyridin-3-yl)quinoline] | 0.2 to 0.78 µg/mL (≈ 0.55 to 2.15 µM) | ≤ 0.1 µg/mL
CC(F)(F)c1ccc(Oc2ncccc2-c2cncc3ccccc23)cn1 [I-109, 4-(2-{[6-(1,1-difluoroethyl)pyridin-3-yl]oxy}pyridin-3-yl)isoquinoline] | ≤ 0.1 µg/mL | ≤ 0.1 µg/mL
CC(F)(F)c1ccc(Oc2ncccc2-c2cccc3nccnc23)cn1 [I-110, 5-(2-{[6-(1,1-difluoroethyl)pyridin-3-yl]oxy}pyridin-3-yl)quinoxaline] | 0.2 to 0.78 µg/mL (≈ 0.549 to 2.14 µM) | ≤ 0.1 µg/mL
CC(F)(F)c1ccc(Oc2ncccc2-c2cncc3nccnc23)cn1 [I-111, 8-(2-{[6-(1,1-difluoroethyl)pyridin-3-yl]oxy}pyridin-3-yl)pyrido[3,4-b]pyrazine] | 0.2 to 0.78 µg/mL (≈ 0.547 to 2.13 µM) | 0.2 to 0.78 µg/mL (≈ 0.547 to 2.13 µM)
CC(F)(F)c1ccc(Oc2ncccc2-c2nccc3ccccc23)cn1 [I-112, 1-(2-{[6-(1,1-difluoroethyl)pyridin-3-yl]oxy}-3-yl)isoquinoline] | 0.2 to 0.78 µg/mL (≈ 0.55 to 2.15 µM) | 0.2 to 0.78 µg/mL (≈ 0.55 to 2.15 µM)
CC(F)(F)c1ccc(Oc2ncccc2-c2cccc3ocnc23)cn1 [I-113, 4-(2-{[6-(1,1-difluoroethyl)pyridin-3-yl]oxy}-3-yl)benzo[d]oxazole] | 0.2 to 0.78 µg/mL (≈ 0.566 to 2.21 µM) | ≤ 0.1 µg/mL
CC(F)(F)c1ccc(Oc2ncccc2-c2cccc3ncoc23)cn1 [I-114, 7-(2-{[6-(1,1-difluoroethyl)pyridin-3-yl]oxy}pyridin-3-yl)benzo[d]oxazole] | 0.2 to 0.78 µg/mL (≈ 0.566 to 2.21 µM) | 0.2 to 0.78 µg/mL (≈ 0.566 to 2.21 µM)
CC(F)(F)c1ccc(Oc2ncccc2-c2cccc3ccnn23)cn1 [I-115, 7-(2-{[6-(1,1-difluoroethyl)pyridin-3-yl]oxy}pyridin-3-yl)pyrazolo[1,5-a]pyridine] | ≤ 0.1 µg/mL | ≤ 0.1 µg/mL
